Test results taken from publication PMC12669040, “Tumour-specific STING agonist synthesis via a two-component prodrug system” (Nature Chemistry, 2025).

System: STING pathway effectors (pSTING, pTBK1, pIRF3) in THP-1 Lucia ISG cells
Experiment: Western blots of STING pathway activation
Format: cell-based, human
Details: 5 μM
Experimental: THP-1 Lucia ISG cells were maintained as described above. […] Cells were treated with cycloheximide (50 µg ml^−1) and incubated for 50 min at 37 °C. Treated cells were then combined with the growth medium containing SC2S dimer (5 µM final concentration) to 1 × 10^6 cells ml^−1 and incubated at 37 °C. At each timepoint, a portion (3 ml) of the cell suspension was withdrawn. Withdrawn cells were pelleted (300g, 3 min), washed with PBS (1 ml), pelleted again (300g, 3 min) and resuspended to a density of 1 × 10^7 cells ml^−1 in ice-cold lysis buffer (25 mM Tris pH 7.6, 150 mM NaCl, 1% NP-40, 1% sodium deoxycholate and 0.1% SDS) supplied with protease/phosphatase inhibitor tablets (Pierce A32961) and freshly prepared phenylmethylsulfonyl fluoride (1 mM). Lysates were further disrupted by sonication at low power (5 s × 3 cycles). Sonicated lysates were clarified by centrifugation at 4 °C (13,000g, 5 min). […] Samples were reduced and denatured at 95 °C for 5 min before being separated on a precast polyacrylamide gel (Invitrogen NuPAGE 4–12% Bis-Tris, 20 µg total protein per lane). Protein bands were then transferred to a polyvinylidene difluoride membrane (Invitrogen iBlot2). […]

## COc1cc2sc(C(=O)CCC(=O)O)cc2cc1SCCSc1cc2cc(C(=O)CCC(=O)O)sc2cc1OC [SC2S]
  phosphorylation of major STING pathway proteins: confirmed the phosphorylation of major STING pathway proteins
